Source: ChEMBL document CHEMBL1159282, “Secondary Mold Metabolites, Part 49. Isolation, Structural Elucidation, and Biomimetic Synthesis of Trametol, a New 1-Arylpropane-1,2-diol Produced by the Fungus Trametes sp” (J Nat Prod, 1995)
Calls of active or inactive are those of the source.

Experiments:
Assay type in all cases: functional, organism-based
Bacillus cereus = experiment: Antimicrobial activity against Bacillus cereus at 150 ug/disk
Bacillus subtilis = experiment: Antimicrobial activity against Bacillus subtilis at 150 ug/disk
Escherichia coli = experiment: Antimicrobial activity against Escherichia coli at 150 ug/disk
Saccharomyces cerevisiae = experiment: Antimicrobial activity against Saccharomyces cerevisiae at 150 ug/disk
[1] = tested on: Cladosporium cladosporioides; experiment: Antimicrobial activity against Cladosporium cladosporioides at 150 ug/disk

Measured: Activity

COc1ccc([C@@H](O)[C@H](C)O)cc1Cl
inactive: Bacillus cereus | Bacillus subtilis | Escherichia coli | Saccharomyces cerevisiae | [1]
